Test results as given in a melting point compilation (Tetko et al.; mined from patent text by program, amines drawn as free bases though some values may be those of a salt).

| Compound | melting point [°C] |
| --- | --- |
| c1ccc(-c2nnc(-c3ccccc3)c3c2CCCCCC3)cc1 | 163 to 165 |
| Cc1nc(CN(C)C)n(-c2ccc(Cl)cc2C(=O)c2ccccc2Cl)c1CO | 164 to 166 |
| CC1(C)Oc2cccc(S(N)(=O)=O)c2O1 | 100 to 112 |
| COC(=O)c1cc(C=O)cc([N+](=O)[O-])c1 | 85 |
| C=CCC(N)c1cccc(OC)c1 (stereo not drawn) | 30 |
| O=C(O)CC1Cc2ccc(OCc3ccccc3)cc2C1 (stereo not drawn) | 127 to 129 |
| CCCCOCCOc1ccc(-c2ccc3c(c2)C=C(C(=O)Nc2ccc(S(=O)Cc4cncn4CCC)cc2)CCCN3CC(C)C)cc1 (single isomer, unassigned; (-)) | 120 to 122 |
| CC=C1CCC2C3CCC4CC(O)CCC4(C)C3C(N(C)C)CC12C (stereo not drawn) | 59 to 61 |
| CCCCCCCCCCCCOC(=O)c1cc([N+](=O)[O-])c(C(=O)O)cc1C(=O)O | 148 |
| O=C1CC(c2ccccc2)c2cc(O)ccc2O1 (stereo not drawn) | 138 |
| O=C(O)C1(c2ccccc2)CCC2(CC1)OCCO2 | 134 to 139 |
| CN1CCN(c2ccc(-c3nc(C(=O)Nc4nccs4)c(-c4ccc(Cl)cc4)[nH]3)cc2)CC1 | > 250 |
| COc1cc(C(C)=O)ccc1OCCN1CCC(C(O)(c2ccc(F)cc2)c2ccc(F)cc2)CC1 | 131 to 135 |
| COc1cc(O)c(C=NNC(=O)c2cc3ccccc3s2)c(OC)c1 | 205 |
| Cc1noc(NS(=O)(=O)c2cccc3nsnc23)c1Br | 177 to 179 |
| COc1ccc(Cn2c3ccccc3c3c(N)c4c(nc32)CC(c2ccccc2)CC4=O)cc1 (stereo not drawn) | 163 to 165 |
| CC(C)=CCN1CCn2c(=O)[nH]c3cc(Cl)cc(c32)C1C (stereo not drawn) | 139 |
| CCNCC1CCN(c2c(F)c(F)c3c(=O)c(C(=O)O)cn(C4CC4)c3c2F)C1 (stereo not drawn) | 247 to 248 |
| COc1cccc([C@H]2O[C@H](CC(=O)N[C@H](C)C(=O)OC(C)(C)C)C(=O)N(CC(C)(C)C)c3ccc(Cl)cc32)c1OC | 127 to 128 |
| CN1CCN(Cc2ccc(Cl)cc2Cl)C(C2=NCCN2)C1 (stereo not drawn) | 167 to 169 |
| COc1ccc(CNC(=O)n2cc(F)c(=O)[nH]c2=O)c(OC)c1 | 154 |
| CC(C)(C)OC(=O)NC1CCC(C(=O)N2CCC(c3[nH]nc4c3C(=O)c3c(NC(=O)NN5CCOCC5)cccc3-4)CC2)CC1 (stereo not drawn) | 178 to 180 |
| COC(=O)c1c(C(=O)OC)c(-c2ccc(OC)c(OC)c2)c2sccc2c1OC | 118 |
| CCCc1c(OCc2cccc(C(=O)NCCCCc3cccnc3)c2)ccc(C(C)=O)c1O | 120 to 123 |
| O=C(O)c1cccc2c(=O)c3ccccc3[nH]c12 | > 300 |
| O=C(Oc1ccc(Cl)cc1)c1cccc(Cl)c1 | 72 |

| Compound | melting point [°C] |
| --- | --- |
| C#CCN1C(=O)C2CC2(c2ccc(N)cc2)C1=O (stereo not drawn) | 106 to 109 |
| COC(=O)c1cccc(C2C(C#N)=C(N)Oc3c2ccc2cnccc32)c1 (stereo not drawn) | 229 to 230 |
| C=CCOc1ccccc1-c1nc2c(CCC)nn(C)c2c(=O)[nH]1 | 116 to 119 |
| CS(=O)(=O)Nc1ccc(NC(=O)CN2CCC(Cc3ccc(F)cc3)CC2)cc1 | 169 to 171 |
| Nc1nc(N)nc(-c2ccc(Sc3ccccc3)cc2)n1 | 213 to 215 |
| O=c1ccn([C@H]2C=C[C@@H](O)C2)c(=O)[nH]1 (racemic) | 163 to 164 |
| Cn1nc(-c2ccccc2S(=O)(=O)Cl)oc1=O | 122 to 125 |
| CCOC(=O)CCn1ccn(C2CCc3ccccc3C2)c1=S (stereo not drawn) | 71 to 73 |
| CC(C)c1cc(S(N)(=O)=O)c(C(C)C)cc1C(F)(F)F | 171 to 174 |
| O=C(Nc1nccs1)C(CC1CCCC1)c1ccc(-c2ccccc2)cc1 (stereo not drawn) | 57 to 58 |
| COC(=O)c1ccc(CSCC(=O)[C@H](Cc2ccccc2)NC(=O)[C@H](CC(C)C)NC(=O)OCc2ccccc2)o1 | 85 to 93 |
| CCC1C(C)=NN=C(c2ccc(OC)c(OC)c2)c2cc(OC)c(OCCCN(C)C)cc21 (stereo not drawn) | 126 to 128 |
| CC1(OC(=O)C=CC2C(C(=O)OC(C#N)c3cccc(Oc4ccccc4)c3)C2(C)C)CCC1 (stereo not drawn) | 78 |
| Cc1ccc(C2c3[nH]c4ccccc4c3CCN2C(=O)C=Cc2cc([N+](=O)[O-])ccc2Cl)cc1 (stereo not drawn) | 211 to 213 |
| CC(C)(O)COc1c(-c2ccc(S(C)(=O)=O)cc2)cnn(-c2ccc(F)c(Cl)c2)c1=O | 122 to 124 |
| Cc1ccsc1C(=O)C(=CN(C)C)c1ccccc1[N+](=O)[O-] | 101 to 103 |
| Cc1cc2nc(NC(=O)NCCN3CCOCC3)sc2cc1OC(C)c1c(Cl)ccc(F)c1Cl (stereo not drawn) | 270 to 276 |
| COc1ccc2[nH]c(CCN(C)C)c(CSc3ccccc3)c2c1 | 85 to 88 |
| CC(=O)c1ccc(-c2ccccc2)cc1O | 90 to 92 |
| CCCCC(NC(=O)C(CC(C)C)NC(=O)c1ccc2ccccc2c1)C(=O)CSCc1ccco1 (stereo not drawn) | 97 to 99 |
| CS(=O)(=O)Oc1ccc([C@@H]2CCNC(=O)[C@H]2c2ccccc2)cc1 (relative stereo) | 199 |
| COc1ccc2c(c1)CN(C(=O)CCCCCN1CCN(c3cccc(C(F)(F)F)c3)CC1)C2 | 92 |
| O=C1C2CC(F)CCN2C(=O)N1c1ncc(Cl)cc1F (stereo not drawn) | 154 to 157 |
| O=S1C(c2ccccc2)CC2(CC1c1ccccc1)OCCO2 (stereo not drawn) | 230 to 232 |
| C=C(Cl)Cc1c(Cl)nc(NC=O)nc1Cl | 113 to 115 |

The remaining lines, values ahead:

| melting point [°C] | Compound |
| --- | --- |
| 96 | CCc1nc(N)nc(NC(CC)COCc2ccc(F)cc2)n1 (stereo not drawn) |
| 160 to 163 | O=C(O)CCCCCSc1ccc(NS(=O)(=O)c2ccc(Cl)cc2)cc1 |
| 226 to 228 | NCc1ccccc1C1CCN(c2nc3c(cc2F)c(=O)c(C(=O)O)cn3C2CC2)C1 (stereo not drawn) |
| 168 to 173 | COC(=O)C1=CC=Nc2ccccc2C1 |
| > 350 | O=c1[nH]c2cc(Cl)ccc2c(O)c1-c1ccc([N+](=O)[O-])cc1 |
| 145 to 147 | COC(=O)c1ccc(O)c(C(=O)CC(=O)c2cc(C)ccc2OC)c1 |
| 73 to 77 | COC(=O)N(c1ccccn1)C(C(=O)NC(Cc1ccccc1)C(O)CN1C2CCC(C2)N1C(=O)OC(C)(C)C)C(C)C (mixture of isomers) |
| 165 to 167 | c1ccnc2ccccc2c2ccccc2cc1 |
| 120 to 122 | CC(c1cc2ccccc2s1)N(OC(=O)OC(C)(C)C)C(N)=O (stereo not drawn) |
| 61 to 63 | C#CCOc1cc(Cl)cc(Cl)c1OCC#C |
| 254 | CCNC(=O)C1CCN(Cc2cnc3cc(NC(=O)c4ccc(-c5ccc(F)cc5)cc4)c(C)cc3c2)CC1 |
| 158 to 160 | Nc1sc(-c2ccco2)c(CN(C2CCCCC2)C2CCCCC2)c1C(=O)c1ccc(Cl)cc1 |
| 57 | Cc1cc(CCCCCOc2ccc(C#N)cc2)on1 |
| 180 to 184 | N#Cc1ccc(-c2cn(-c3ccc(I)cc3)c(SCc3ccccn3)n2)cc1 |
| 122 to 123 | CN(CC(O)(CO)c1ccccc1)S(=O)(=O)c1ccc(Cl)cc1 (stereo not drawn) |
| 100 to 105 | Cc1ccccc1NC(=O)C1CCc2nc[nH]c2C1 (stereo not drawn) |
| 87 to 89 | CC(O)c1ccc(Cl)c(Cl)c1Cl (stereo not drawn) |
| 149 to 151 | CC(C)c1cccc(C(C)C)c1NC(=O)CNC(c1ccccc1)c1cccc2ccccc12 (stereo not drawn) |
| 187 to 189 | CC(C)(C)c1ccc(-c2[nH]c3nccnc3c2CCCO)cc1 |
| 56 to 57 | CCCCCCCCCCCCCCOCC(O)CO (stereo not drawn) |
| 72.5 to 73.5 | CCOP(=O)(OCC)c1ccc(/C=C(\C)c2ccc3c(c2)C(C)(C)CCC3(C)C)cc1 |
| 65 to 66 | CC(C)OC(=O)CCC(=O)c1ccc(-c2ccccc2F)cc1 |
| 161 to 162 | C=C1C(O)C(CO)OC1n1cc(C)c(=O)[nH]c1=O (stereo not drawn) |
| 120 to 124 | CNc1cc(F)ccc1C(=O)CS(=O)(=O)N(C)C |

| melting point [°C] | Compound |
| --- | --- |
| 148 to 150 | CC1CCN(c2c(F)c(N)c3c(=O)c(C(=O)O)cn(C4CC4)c3c2F)CC(C)(C)C1 (stereo not drawn) |
| 242 to 244 | O=C(Nc1ccc2[nH]c(=O)oc2c1)C(=O)N1CCC(Oc2ccc(Cl)cc2)CC1 |
| 184 to 185 | Cc1oc(-c2ccccc2)nc1Cc1cc2cc(CCCC3OC(=O)NC3=O)ccc2o1 (stereo not drawn) |
| 133 to 136 | COc1cc(C(C)C(=O)O)ccc1-c1ccc(F)cc1 (stereo not drawn) |
| 99 to 102 | C#CCN1CC(=O)N(c2ccc(Cl)cc2C)C1=S |
| 156 to 158 | O=C(O)C1C=CCn2c(=O)n(CCS)c(=O)n21 (stereo not drawn) |
| 159 to 160 | O=C1C2CC3CC1CC(OCc1ccc(-c4nc5ccccc5o4)cc1)(C3)C2 |
| 173 | O=C(O)[C@@H]1[C@H](C(=O)O)N(Cc2ccccc2)C(=O)N1Cc1ccccc1 |
| 190 to 191 | Cc1c(C(=O)NCc2ccccc2)nc(-n2ccc(OCc3ccccc3)cc2=O)n1C |
| 135 to 136 | CC(C(=O)O)c1ccc(C=C2CCCCC2O)cc1 (stereo not drawn) |
| 233 to 234 | CCS(=O)(=O)N1CCN(c2ccc(NC(=O)c3cc(=O)c4cc(F)cc(N5CCN(C)CC5)c4o3)cc2)CC1 |
| 94 to 95 | CC(C)(OCCOCc1nn(Cc2ccccc2)c2ccccc12)C(=O)O |
| 61 | CCC(=O)N1C(=O)OC(C)(C)[C@@H]1Cc1ccccc1 |
| 188 to 189 | CCn1c(-c2ccc(Cl)cc2)n[nH]c1=O |
| 82 to 87 | Cc1ccc2cccc(OCc3cc(N(C)C(=O)CN)ccc3Cl)c2n1 |
| 75 to 77 | CC(C)(C)c1ncncc1C(=O)c1ccc(Cl)cc1 |
| 180 | Cc1cnc(Cl)c(C(=O)O)c1 |
| 170 to 172 | Cc1cc(F)ccc1-c1ccc2c(c1)NC(=O)CC(c1cccc(-n3ccnc3)c1)=N2 |
| 156 to 158 | O=c1ccn(-c2cccc(C(F)(F)F)c2)nc1-c1c(F)cnn1-c1ccccc1 |
| 113 to 114 | CC(=O)c1ccc(NS(C)(=O)=O)c(Oc2ccccc2)c1 |
| 266 to 268 | Clc1ccc(-c2[nH]nc3c2Cc2ccccc2-3)cc1 |
| 85 to 87 | COc1cc(CCCCC#CCCCC#CCO)c(O)c2ccccc12 |
| 261 to 265 | CCCn1c(=O)c2[nH]c(-c3cc(C)n(CC(=O)Nc4ccc(Cl)cc4)n3)nc2n(CCC)c1=O |
